Measured values taken from patent EP0048614B1, “1-N-acylated and 1-N-alkylated derivatives of 4-0-substituted -2-deoxystreptamine aminoglycosides” (ELI LILLY AND COMPANY, priority 1980, dated 1982).

What was measured:
B. subtilis X12 = test: Bioautography of thin layer chromatography plate; format: cell-based; conditions: TLC plate of the reaction mixture against B. subtilis X12
Procedure: Apramycin (54 mg, 0.1 mmol) was dissolved in water (1 ml). Zinc acetate dihydrate (100 mg, 0.4 mmol) was added to this solution and the mixture was briefly sonicated to disperse crystals of zinc acetate. The ' mixture was diluted with dimethylformamide (5 ml), 1-iodo-n-butane (0.115 ml), 1 mmol) was added and this reaction mixture was stirred at room temperature for 4 days.

[1] = test system: Staphylococcus epidermidis EPI2; test: MIC, standard agar dilution test; format: cell-based; conditions: Staphylococcus epidermidis EPI2; agar dilution; read-out: Minimum Inhibitory Concentration
Source text: (§1) The antibacterial activity of the deprotected compounds of this invention is illustrated by the following in vitro and in vivo test data obtained with representative compounds. In Table I, the minimum inhibitory concentration (MIC) for representative compounds against a wide range of gram-positive and gram-negative bacteria is presented. The MIC values were obtained by the standard agar dilution test.

Serratia marcescens X99 = test: MIC, standard agar dilution test; format: cell-based; conditions: Serratia marcescens X99, read-out: Minimum Inhibitory Concentration
Source text: as §1

[2] = test system: Klebsiella pneumoniae X26; test: MIC, standard agar dilution test; format: cell-based; conditions: Klebsiella pneumoniae X26; agar dilution; read-out: Minimum Inhibitory Concentration
Source text: as §1

[3] = test system: Streptococcus pneumoniae Park I; test: MIC, standard agar dilution test; format: cell-based; conditions: Streptococcus pneumoniae; read-out: Minimum Inhibitory Concentration
Source text: as §1

[4] = test system: Salmonella typhimurium 1335; test: MIC, standard agar dilution test; format: cell-based; conditions: Salmonella enterica; Salmonella typhimurium 1335; agar dilution; read-out: Minimum Inhibitory Concentration
Source text: as §1

Proteus rettgeri C24 = test: MIC, standard agar dilution test; format: cell-based; conditions: Providencia rettgeri; Proteus rettgeri C24; agar dilution; read-out: Minimum Inhibitory Concentration
Source text: as §1

[5] = test system: Pseudomonas aeruginosa Ps18; test: MIC, standard agar dilution test; format: cell-based; conditions: Pseudomonas aeruginosa Ps18; agar dilution; read-out: Minimum Inhibitory Concentration
Source text: as §1

Escherichia coli N10 = test: MIC, standard agar dilution test; format: cell-based; conditions: Escherichia coli, N10, Escherichia coli N10; agar dilution; read-out: Minimum Inhibitory Concentration
Source text: as §1

Serratia marcescens SE3 = test: MIC, standard agar dilution test; format: cell-based; conditions: Serratia marcescens SE3; agar dilution; read-out: Minimum Inhibitory Concentration
Source text: as §1

Shigella sonnei N9 = test: MIC, standard agar dilution test; format: cell-based; conditions: read-out: Minimum Inhibitory Concentration
Source text: as §1

Proteus morganii PR15 = test: MIC, standard agar dilution test; format: cell-based; conditions: Morganella morganii; Proteus morganii PR15; agar dilution; read-out: Minimum Inhibitory Concentration
Source text: as §1

[6] = test system: Staphylococcus aureus S13E; test: MIC, standard agar dilution test; format: cell-based; conditions: read-out: Minimum Inhibitory Concentration
Source text: as §1

[7] = test system: Enterobacter aerogenes EB17; test: MIC, standard agar dilution test; format: cell-based; conditions: Klebsiella aerogenes; Enterobacter aerogenes EB17; agar dilution; read-out: Minimum Inhibitory Concentration
Source text: as §1

Escherichia coli TEM = test: MIC, standard agar dilution test; format: cell-based; conditions: read-out: Minimum Inhibitory Concentration
Source text: as §1

Enterobacter cloacae EB5 = test: MIC, standard agar dilution test; format: cell-based; conditions: Enterobacter cloacae EB5; agar dilution; read-out: Minimum Inhibitory Concentration
Source text: as §1

Hemophilus influenzae 76 = test: MIC, standard agar dilution test; format: cell-based; conditions: Haemophilus influenzae, Hemophilus influenzae 76, read-out: Minimum Inhibitory Concentration
Source text: as §1

[8] = test system: Streptococcus group D X66; test: MIC, standard agar dilution test; format: cell-based; conditions: DX66; Streptococcus group D X66; agar dilution; read-out: Minimum Inhibitory Concentration
Source text: as §1

Escherichia coli EC14 = test: MIC, standard agar dilution test; format: cell-based; conditions: Escherichia coli EC14; agar dilution; read-out: Minimum Inhibitory Concentration
Source text: as §1

[9] = test system: Salmonella heidelberg X514; test: MIC, standard agar dilution test; format: cell-based; conditions: Salmonella enterica; Salmonella heidelberg X514; agar dilution; read-out: Minimum Inhibitory Concentration
Source text: as §1

[10] = test system: Pseudomonas aeruginosa X528; test: MIC, standard agar dilution test; format: cell-based; conditions: Pseudomonas aeruginosa X528; agar dilution; read-out: Minimum Inhibitory Concentration
Source text: as §1

[11] = test system: Streptococcus pyogenes C203; test: MIC, standard agar dilution test; format: cell-based; conditions: Streptococcus pyogenes C203; agar dilution; read-out: Minimum Inhibitory Concentration
Source text: as §1

[12] = test system: Klebsiella pneumoniae KAE; test: MIC, standard agar dilution test; format: cell-based; conditions: Klebsiella pneumoniae KAE; agar dilution; read-out: Minimum Inhibitory Concentration
Source text: as §1

[13] = test system: Streptococcus group D 9960; test: MIC, standard agar dilution test; format: cell-based; conditions: D9960; Streptococcus group D 9960; agar dilution; read-out: Minimum Inhibitory Concentration
Source text: as §1

Proteus rettgeri PR7 = test: MIC, standard agar dilution test; format: cell-based; conditions: Providencia rettgeri, Proteus rettgeri PR7, read-out: Minimum Inhibitory Concentration
Source text: as §1

[14] = test system: Bordetella bronchiseptica 16; test: MIC, standard agar dilution test; format: cell-based; conditions: Bordetella bronchiseptica 16; agar dilution; read-out: Minimum Inhibitory Concentration
Source text: as §1

[15] = test system: Enterobacter cloacae 265A; test: MIC, standard agar dilution test; format: cell-based; conditions: Enterobacter cloacae 265A; agar dilution; read-out: Minimum Inhibitory Concentration
Source text: as §1

[16] = test system: Enterobacter aerogenes X68; test: MIC, standard agar dilution test; format: cell-based; conditions: Klebsiella aerogenes, Enterobacter aerogenes X68, read-out: Minimum Inhibitory Concentration
Source text: as §1

[17] = test system: Hemophilus influenzae C.L.; test: MIC, standard agar dilution test; format: cell-based; conditions: Haemophilus influenzae, Hemophilus influenzae C.L., read-out: Minimum Inhibitory Concentration
Source text: as §1

[18] = test system: Enterobacter aerogenes C32; test: MIC, standard agar dilution test; format: cell-based; conditions: Klebsiella aerogenes; Enterobacter aerogenes C32; agar dilution; read-out: Minimum Inhibitory Concentration
Source text: as §1

Proteus inconstans PR33 = test: MIC, standard agar dilution test; format: cell-based; conditions: Providencia alcalifaciens; Proteus inconstans PR33; agar dilution; read-out: Minimum Inhibitory Concentration
Source text: as §1

[19] = test system: Pseudomonas aeruginosa X239; test: MIC, standard agar dilution test; format: cell-based; conditions: Pseudomonas aeruginosa X239; agar dilution; read-out: Minimum Inhibitory Concentration
Source text: as §1

[20] = test system: Staphylococcus aureus V41; test: MIC, standard agar dilution test; format: cell-based; conditions: Staphylococcus aureus V41; agar dilution; read-out: Minimum Inhibitory Concentration
Source text: as §1

[21] = test system: Staphylococcus aureus X1.1; test: MIC, standard agar dilution test; format: cell-based; conditions: Staphylococcus aureus X1.1; agar dilution; read-out: Minimum Inhibitory Concentration
Source text: as §1

[22] = test system: Staphylococcus aureus X400; test: MIC, standard agar dilution test; format: cell-based; conditions: Staphylococcus aureus X400, read-out: Minimum Inhibitory Concentration
Source text: as §1

[23] = test system: Citrobacter freundii CF17; test: MIC, standard agar dilution test; format: cell-based; conditions: Citrobacter freundii CF17; agar dilution; read-out: Minimum Inhibitory Concentration
Source text: as §1

[24] = test system: Staphylococcus epidermidis EPI1; test: MIC, standard agar dilution test; format: cell-based; conditions: Staphylococcus epidermidis, EPI1; read-out: Minimum Inhibitory Concentration
Source text: as §1

Escherichia coli X563 = test: Standard disc-plate method, zone of inhibition against apramycin-resistant strain; format: cell-based; conditions: apramycin-resistant E. coli X563, one value for each of two test runs per compound
Source text: Table III, shown below, illustrates the in vitro activity of 1-N-(S-y-amino-a-hydroxybutyryl)apramycin, 1-N-(RS-y-amino-a-hydroxybutyryl)apramycin, and 1-N-(S-y-amino-a-hydroxybutyryl)nebramine against an apramycin resistant strain of E. coli. The results below were obtained using the standard disc-plate method. The numerical values are the diameters in millimeters of the zones of inhibition observed against this bacterium. Compounds substituted with the y-amino-a-hydroxybutyryl and analogous side chains are useful in treating infections caused by apramycin resistant bacteria such as the one above.
The test organism (E. coli X563) used in the experiments summarized in Table III is resistant to apramycin due to a 3-N-acetyltransferase which enzymatically inactivates apramycin.

[25] = test system: Staphylococcus aureus 3055; test: Subcutaneous therapy of experimental bacterial infection in mice (ED50); format: in vivo; conditions: Staphylococcus aureus, 3055, sc; mg/kg × 2 subcutaneous doses at 1 and 5 hours post infection; mice challenged with 68.1 LD50's; read-out: Effective Dose (ED50)
Procedure: Table II illustrates the effective dose (ED50, the effective dose to protect 50 percent of the test animals) for representative compounds of this invention against an experimental bacterial infection in mice.
The ED50 values were determined as described by W. E. Wick et al., Journal of Bacteriology, 81 [No. 2], 233-235 (1961).

CNC1C(OC2OC(CO)C(N)C(O)C2O)OC2CC(N)C(OC3C(N)CC(NCc4ccccc4)C(O)C3O)OC2C1O (stereo not shown) [1-N-benzylapramycin]
zone of inhibition: zone of inhibition (bioautography) (B. subtilis X12)

CCNC1CC(N)C(OC2OC3C(CC2N)OC(OC2OC(CO)C(N)C(O)C2O)C(NC)C3O)C(O)C1O (stereo not shown) [Test Compound 4, 1-N-ethylapramycin]
64 µg/mL: MIC (Serratia marcescens X99) | MIC (Proteus rettgeri C24) | MIC [14]
4.5 mg/kg: ED50 [25]
> 128 µg/mL: MIC (Serratia marcescens SE3) | MIC [8] | MIC [13]
32 µg/mL: MIC [4] | MIC [5] | MIC (Proteus morganii PR15) | MIC (Enterobacter cloacae EB5) | MIC (Escherichia coli EC14) | MIC [9] | MIC [15]
4 µg/mL: MIC [1]
128 µg/mL: MIC (Proteus inconstans PR33)
8 µg/mL: MIC [2] | MIC [6] | MIC (Escherichia coli TEM) | MIC (Proteus rettgeri PR7) | MIC [18] | MIC [19] | MIC [20] | MIC [21] | MIC [24]
12.1 mm: Zone of Inhibition (diameter in mm) (Escherichia coli X563; 15 mcg/disc, listed as 5)
11.3 mm: zone of inhibition at 15 µg/disc (Escherichia coli X563; Escherichia coli, X563, read-out: Zone of Inhibition (diameter in mm), 15 mcg/disc)
16 µg/mL: MIC [3] | MIC (Escherichia coli N10) | MIC (Shigella sonnei N9) | MIC [7] | MIC (Hemophilus influenzae 76) | MIC [10] | MIC [11] | MIC [12] | MIC [16] | MIC [17] | MIC [22] | MIC [23]
